Like-named read-outs stand apart in the source and are kept apart here.
How the values were obtained:
diamond back moth [1] = experiment: Insecticidal activity against diamond back moth in greenhouse (airbrush spraying of cabbage leaf discs); format: in vivo; conditions: Plutella xylostella, foliar, 72 h, read-out: Mortality of diamond back moth (%)
Protocol: (§1) Compounds were dissolved in mixed solvent (acetone:methanol=1:1), and diluted to required concentration with water containing 0.1% of tweed 80.
(§2) The method of spraying by airbrush: The cabbage leaves were made into plates of 2 cm diameter by use of punch. A test solution (0.5 ml) was sprayed by airbrush at the pressure of 0.7 kg/cm^2 to both sides of every plate. 10 Second instar larvae were put into the petri-dishes after the leaf disc air-dried and 3 replicates were set for each treatment. Then the insects were maintained in observation room (25° C., 60˜70% R.H.), Scores were conducted and mortalities were calculated after 72 h.

beet armyworm [2] = experiment: Insecticidal activity against beet armyworm (24 well-plate artificial diet emulsion method); format: in vivo; conditions: Spodoptera exigua, 72 h, read-out: Mortality of beet armyworm (%)
Protocol: as §1
24 well-plate artificial diet emulsion method: artificial food was added to each well of the 24 well-plate, after the artificial food was cooled, the prepared solution were added into the 24 well-plate according to the experimental design by order of chemical concentrations from low to high, by gently shaking the even emulsion film can be formed on the surface of the diet. 24 neat and healthy larvae were put into the 24 well-plate (one larvae each well) after the film was air-dried and 3 replicates were set for each treatment. Then the insects were maintained in observation room (25° C., 60˜70% R.H.). Scores were conducted and mortalities were calculated after 72 h.

diamond back moth [3] = experiment: Field trial against diamond back moth on cabbage; format: in vivo, Plutella xylostella; conditions: 105 g a.i./hm^2, 10% EC
Protocol: (§3) Calculation Method: Decrease rate of insects (%)=(the number of insects before application−the number of insects after application) the number of insects before application×100 Control efficacy (%)=(decrease rate of insects in treated area decrease rate of insects in blank comparative area)/(100−decrease rate of insects in blank comparative area)×100
The trial was carried out in the test filed of Shenyang Research Institute of Chemical industry Ltd. The trial crop is cabbage (Variety: Zhonggan NO 8.). The dosage of the compound 1 are 75, 105, 150 g a.i./hm^2 and comparative agent pyridalyl is 105 g a.i./hm^2. The agent was applied once on 13 Jun. 2011. The application tool is Shandongweishi WS-16P type backpack manual sprayer. Evenly spraying to whole cabbage which is in rosette stage was conducted. Diamond back moth is originated at the peak time. The plot area is 10 m^2, 3 replicates and randomized block arrangement were set. The amount of spray liquid is 750 L/hm^2. It was sunny with the highest temperature of 29° C., and the lowest of 17° C. on the day of the application of the spray. The methods of investigation and calculation are the same as Example 13.

beet armyworm [4] = experiment: Field trial against beet armyworm on cabbage; format: in vivo, Laphygma exigua; conditions: 105 g a.i./hm^2, 10% EC
Protocol: The trial was carried out in rain shelter area of experimental field of Wuhan vegetable research institute, the test crop is cabbage (variety: Jingfeng NO. 1). The dosage of the invention compound 1 (Example 11, 10% EC, same as below) are 75, 105, 150 g a.i./hm^2. and the comparative agent pyridalyl (10% EC, commercially available, same as below) is 105 g a.i./hm^2. The agent was applied on 9 Oct. 2011. The application tool is Linong 16HD-400 type backpack spray. Evenly spraying to whole cabbage which is in rosette stage was conducted. Beet armyworm is mainly larvae. The plot area is 25 m^2 and 4 replicates and randomized block arrangement were set. The amount of spray liquid is 750 L/hm^2. It was sunny and there was no wind, with the highest temperature of 28° C. and the lowest of 15° C. on the day of the application. Chosen 10 plants from each plot and scored the larvae at different instars at fixing time. The base number was investigated before treatment. The number of living larvae was counted after 1 day, 3 days, 7 days and 14 days respectively after application and control efficacy was calculated.
as §3

housefly = experiment: Insecticidal activity against housefly (diet incorporation test); format: in vivo; conditions: Musca domestica, 72 h, read-out: Mortality of housefly (%)
Protocol: Diet Incorporation Tests: the test compound was dissolved with 90% acetone to obtain the mother liquor after weigh accurately with an electronic balance. The required concentration solution was got by diluting to the mother liquor with a certain concentration milk powder solution according to the designed doses in the experiment. Then, the diluted concentration solution was evenly put into the petri dishes with diameter of 6 cm inside which filter paper was placed by using a transferring-liquid gun ([…], solution each petri dish). Finally the 3rd instars of larvae were put into petri dishes with 10 each petri dish, and 3 replicates were set for each treatment. Then the insects were maintained in observation room (25° C., 60˜70% R.H.). Scores were conducted and mortalities were calculated after 72 h.

[5] = system: cabbage butterfly (Pierisrapae Linne); experiment: Field trial against cabbage butterfly; format: in vivo; conditions: 105 g a.i./hm^2, 10% EC
Protocol: as §3
The trial was carried out in a farmer's vegetable field in Xiangcheng District Suzhou City. The variety of the cabbage is Xinxia 50. The dosage of the compound 1 are 75, 105, 150 g a.i./hm^2 and the comparative agent pyridalyl is 105 g a.i./hm^2. The agent was applied on 26 May 2011. The application tool is Singaporean Linong HD-400 type backpack spray. Evenly spraying to whole cabbage which is at vegetative growth phase was conducted, Cabbage butterfly is at a peak time of 1-3 instars of larvae. The plot area is 15 m^2, 4 replicates and randomized block arrangement were set. The amount of spray liquid is 750 L/hm^2. It was from sunny to cloudy with the highest temperature of 22.6° C., and the lowest of 17.8° C. on the day of the application of the spray. Chosen 10 plants from each plot and scored the larvae at different instars at fixing time. The base number was investigated before treatment. The number of living larvae was counted after 1 day, 4 days, 7 days and 12 days respectively after application and control efficacy was calculated.
Calculation method: the same as Example 13.

armyworm = experiment: Insecticidal activity against armyworm in greenhouse (airbrush spraying of corn leaf discs); format: in vivo; conditions: 72 h; for control of the armyworm: 600 mg/L; for mortality at 10 µg/mL / mortality at 100 µg/mL: Mythimna separata, foliar; for mortality at 10 µg/mL / mortality at 100 µg/mL / Mortality of armyworm (%): parallel determination
Protocol: as §1
as §2, with “corn” for “cabbage”, “Petri-dishes” for “petri-dishes”, “thr” for “for”, “R.H.).” for “R.H.),”

Prodenia litura = conditions: 500 ppm; cited from earlier work
Heliothis virescens = conditions: 100 ppm; cited from earlier work
[6] = 6.25 mg/L, parallel determination
[7] = 25 mg/L, parallel determination
[8] = 50 mg/L, parallel determination

FC(F)(F)c1ccc(OCCCOc2c(Cl)cc(OCC=C(Cl)Cl)cc2Cl)nc1 [Compound D-2, pyridalyl, reference compound]
mortality at 6.25 µg/mL (diamond back moth [1]): 50% | mortality at 25 µg/mL (diamond back moth [1]): 75% | mortality at 50 µg/mL (diamond back moth [1]): 90% | mortality at 2.5 µg/mL (beet armyworm [2]): 16.7% | mortality at 10 µg/mL (beet armyworm [2]): 100% | Control efficacy (%) (diamond back moth [3]; 1 day after treatment): 95.1% | Control efficacy (%) (diamond back moth [3]; 3 days after treatment): 97.0% | Control efficacy (%) (diamond back moth [3]; 7 days after treatment): 94.9% | Control efficiency (%) (beet armyworm [4]; 1 day after treatment): 70.76% | Control efficiency (%) (beet armyworm [4]; 3 days after treatment): 83.34% | Control efficiency (%) (beet armyworm [4]; 7 days after treatment): 78.33% | Control efficiency (%) (beet armyworm [4]; 14 days after treatment): 61.21% | mortality at 10 µg/mL (housefly): 0% | mortality at 20 µg/mL (housefly): 25% | Control efficiency (%) ([5]; 1 day after treatment): 49.7% | Control efficiency (%) ([5]; 4 day after treatment): 84.3% | Control efficiency (%) ([5]; 7 day after treatment): 88.5% | Control efficiency (%) ([5]; 12 days after treatment): 75.8%

ClC(Cl)=CCOc1cc(Cl)c(OCCCOc2ccc(Oc3ccccc3)cc2)c(Cl)c1 [Compound 38]
control of the armyworm (armyworm): 100%

FC(F)(F)c1cnc(Oc2ccc(OCCCOc3c(Cl)cc(OCC=C(Cl)Cl)c(Cl)c3Cl)cc2)c(Cl)c1 [Compound 118]
control of the armyworm (armyworm): 100%

FC(F)(F)c1cnc(Oc2ccc(OCCCOc3c(Cl)cc(OCC=C(Cl)Cl)cc3Cl)cc2)c(Cl)c1 [Compound 2]
mortality at 6.25 µg/mL (diamond back moth [1]; [6]): 75% | mortality at 25 µg/mL (diamond back moth [1]; [7]): 100% | mortality at 50 µg/mL (diamond back moth [1]; [8]): 100%

Fc1cccc(Cl)c1COc1ccc(OCCCOc2c(Cl)cc(OCC=C(Cl)Cl)cc2Cl)cc1 [Compound 72]
control of the armyworm (armyworm): 100%

CC(C)(C)n1ncc(Oc2ccc(OCCCOc3c(Cl)cc(OCC=C(Cl)Cl)cc3Cl)cc2)c(Cl)c1=O [Compound 57]
control of the armyworm (armyworm): 100%

FC(F)(F)c1cnc(Oc2ccc(OCCCOc3c(Cl)cc(OCC=C(Cl)Cl)cc3Cl)cc2Cl)c(Cl)c1 [Compound D-1, reference compound]
mortality at 6.25 µg/mL (diamond back moth [1]; [6]): 0% | mortality at 25 µg/mL (diamond back moth [1]; [7]): 30% | mortality at 50 µg/mL (diamond back moth [1]; [8]): 80% | mortality at 10 µg/mL (armyworm; 10 mg/L): 30% | mortality at 100 µg/mL (armyworm; 100 mg/L): 90% | control against Prodenia litura (Prodenia litura): above 80% | control on Heliothis virescens (Heliothis virescens): above 80%

Fc1cc(Cl)cnc1Oc1ccc(OCCCOc2c(Cl)cc(OCC=C(Cl)Cl)cc2Cl)cc1 [Compound 3]
control of the armyworm (armyworm): 100%

FC(F)(F)c1cnc(Oc2ccc(OCCCOc3ccc(OCC=C(Cl)Cl)cc3Cl)cc2)c(Cl)c1 [Compound 84]
control of the armyworm (armyworm): 100%

ClC(Cl)=CCOc1cc(Cl)c(OCCCOc2ccc(Oc3nc(Cl)c(Cl)cc3Cl)cc2)c(Cl)c1 [Compound 11]
control of the armyworm (armyworm): 100%

FC(F)(F)c1ccc(Oc2ccc(OCCCOc3ccc(OCC=C(Cl)Cl)cc3Cl)cc2)nc1 [Compound 83]
control of the armyworm (armyworm): 100%

FC(F)(F)c1ccc(Oc2ccc(OCCCOc3c(Cl)cc(OCC=C(Cl)Cl)c(Cl)c3Cl)cc2)nc1 [Compound 117]
Mortality of armyworm (%) (armyworm; 10 mg/L): 100% | Mortality of armyworm (%) (armyworm; 100 mg/L): 100% | control of the armyworm (armyworm): 100%

ClC(Cl)=CCOc1cc(Cl)c(OCCCOc2ccc(OCc3cnc(Cl)s3)cc2)c(Cl)c1 [Compound 80]
control of the armyworm (armyworm): 100%

ClC(Cl)=CCOc1cc(Cl)c(OCCCOc2ccc(Oc3nc4ccc(Cl)cc4o3)cc2)c(Cl)c1 [Compound 219]
control of the armyworm (armyworm): 100% | mortality at 10 µg/mL (armyworm; 10 mg/L): 70% | mortality at 100 µg/mL (armyworm; 100 mg/L): 100%

— patent US8969332B2, “Aryloxy dihalopropenyl ether compounds and uses thereof” (Sinochem Corporation, priority 2011, dated 2015)
